Experimental findings from patent US20240299356A1, “DEVELOPMENT OF PRMT-TARGETING THERAPY TO ENHANCE EGFR-TARGETING DRUG EFFICACY IN NSCLC” (The Regents of the University of California, priority 2021, published 2024) are described below.

Holding throughout (assay type): cell-based
Assay [1] deals with PC9. In words: Drug tolerance assay: surviving fraction of PC9 cells under continuous erlotinib. The text has this: (§1) FIGS. 1A-1F present exemplary data showing that Type I PRMT inhibition reduced IFNγ signaling-modulated drug tolerance. FIG. 1A present a three-step approach aimed at investigating drug tolerance. FIG. 1B is a line graph showing PC9 cell viabilities under six-day treatment of various doses of erlotinib in the context of IFNγ. […] FIG. 1E is a line graph showing that inhibition of type I PRMTs by MS023 reduced cancer drug tolerance specifically in the IFNγ/STAT1 activation context (normalized to DMSO controls in corresponding IFNγ contexts). Tolerance model for FIG. 1E: PC9 treated with 2.5 μM erlotinib for six days. […] Tolerance model: PC9 treated with 2.5 μM erlotinib.
FIGS. 4A-4F present exemplary data showing that Type I PRMT inhibition reduces IFNγ signaling-modulated drug tolerance. FIG. 4A is a line graph showing the pro-survival effects of IFNγ in a variety of cell types with the cytotoxic inducers. Six-day tolerance assay in lung cancer cells was performed under 2.5 μM erlotinib or 50 μM carboplatin. FIG. 4B is a line graph showing PC9 cells co-treated with IFNγ and cytotoxic stressors (EGFR inhibitor Gefitinib, PARP inhibitor olaparib, death ligand TRAIL, procaspase-3 activator PAC-1), and cell viabilities were measured by Cell TiterGlo after six days. FIG. 4C is a bar-graph showing PRMT1 knockdown efficiency measured by qPCR after two days of siRNA transfection. FIG. 4D is a line graph showing that inhibition of type I PRMTs by MS023 reduced cancer drug tolerance specifically in the IFNγ/STAT1 activation context (normalized to DMSO control in (−) IFNγ context). Tolerance model for FIG. 4D: PC9 treated with 2.5 μM erlotinib for six days. FIG. 4E is a line graph showing that inhibition of type I PRMTs by GSK3368715 reduced cancer drug tolerance specifically in the IFNγ/STAT1 activation context (normalized to DMSO controls in corresponding IFNγ contexts). FIG. 4F is a line graph line graphs showing that inhibition of type I PRMTs by GSK3368715 reduced cancer drug tolerance specifically in the IFNγ/STAT1 activation context (normalized to DMSO control in (−) IFNγ context). Tolerance model for FIGS. 4E and 4F: PC9 treated with 2.5 μM erlotinib for six days.
To investigate drug tolerance, we undertook a three-step approach (FIG. 1A). First, we established reproducible assays to monitor small subpopulations of cancer cells that survive sustained SOC drug treatment. We initially selected the well-established drug-tolerance model provided by the EGFR-mutant lung cancer cell line PC9 and EGFR inhibitor erlotinib^1,2,6. The effect of perturbations to drug tolerance was assessed by quantifying changes to the fraction of the small subpopulation of surviving (drug-tolerant) cells after approximately one week of continuous drug treatment.

The test system of assay [2] is PC9. The experiment in a line: Emergence of drug-tolerant persisters, two-month co-treatment with erlotinib. The following applies: IFNγ stimulation, PC9, 2.5 μM erlotinib (FIG. 1F).
Description: as §1
Third, we searched for perturbations that reduce IFNγ-stimulated drug tolerance within a collection of compounds of known biological functions and targets. […] Thus, type I PRMT inhibition is a vulnerability of IFNγ signaling-stimulated drug tolerance.

In assay [3] the test system is PC9 STAT1 knockdown / homozygous knockout cells. The experiment in a line: Drug tolerance assay in PC9 with STAT1 knockdown or knockout. Particulars: PC9 treated with 2.5 μM erlotinib. As to the method:
(§2) FIG. 2A is a line graph showing that knockout of STAT1 by CRISPR blocked IFNγ-induced change of drug-tolerant subpopulation size. […] FIG. 2D is a line graph showing homozygous knockout of STAT1 by CRISPR (tolerance model: PC9 treated with 2.5 μM erlotinib). […] Relative intensities were measured from by mass spectrometry experiments. FIG. 2H is a diagram of STAT1-mediated drug tolerance and type I PRMT vulnerability to eliminate drug tolerance.
(§3) FIG. 5C is a line graph showing that STAT1 modulated cancer drug tolerance, and knockdown of STAT1 by siRNA blocked IFNγ-induced change of drug-tolerant subpopulation size. […] FIG. 5E is a bar graph showing that cancer drug treatment (EGFR drugs and other cytotoxic stressors) enhanced STAT1 expression across multiple cell lines. […] Tolerance model for FIG. 5G: PC9 treated with 2.5 μM erlotinib. FIG. 5H presents exemplary data showing differential gene expression in erlotinib-tolerant PC9 cells comparing to parental cells. The top panel of FIG. 5H is a volcano plot in which IRDS genes are shown in black. The bottom panel of FIG. 5H is a line graph showing the accumulative distribution of adjusted p-values of IRDS genes (gray) versus all genes excluding IRDS genes (black). FIG. 5I is a line graph showing the knockdown of STAT1 by siRNA. […] Relative intensities were measured from by mass spectrometry experiments. […]

The next assay concerns STAT1. In words: STAT1 protein expression (Western blot). As to the method: as §2
FIG. 5C is a line graph showing that STAT1 modulated cancer drug tolerance, and knockdown of STAT1 by siRNA blocked IFNγ-induced change of drug-tolerant subpopulation size. […] FIG. 5E is a bar graph showing that cancer drug treatment (EGFR drugs and other cytotoxic stressors) enhanced STAT1 expression across multiple cell lines. […] Tolerance model for FIG. 5G: PC9 treated with 2.5 μM erlotinib. FIG. 5H presents exemplary data showing differential gene expression in erlotinib-tolerant PC9 cells comparing to parental cells. The top panel of FIG. 5H is a volcano plot in which IRDS genes are shown in black. The bottom panel of FIG. 5H is a line graph showing the accumulative distribution of adjusted p-values of IRDS genes (gray) versus all genes excluding IRDS genes (black). FIG. 5I is a line graph showing the knockdown of STAT1 by siRNA. FIG. 5J is a line graph showing the homozygous knockout of STAT1 by CRISPR. Tolerance model for FIGS. 5I and 5J: PC9 treated with 2.5 μM erlotinib. […] PC9 cells were pretreated with MS023 for one day, followed by co-treatment of erlotinib, and perturbations of protein synthesis or degradation for 16 hours. Cycloheximide (CHX): protein synthesis inhibitor. Bortezomib (Bort): proteasome inhibitor. Ammonium chloride (NH4Cl)): lysosomal function inhibitor. […] FIG. 5P is a bar graph showing type I PRMTs methylate PABP2 at multiple arginine residues. Relative intensities were measured from by mass spectrometry experiments.
What is the connection between type I PRMTs and IFNγ signaling-modulated drug tolerance? […] Previous work in other systems identified STAT1 or its regulator PIAS1 as direct substrates of type I PRMTs^27, though we could not find evidence for their arginine methylation in our system (data not shown).
Background: Immunoblotting shows a protein as a band on a membrane.

For another assay, the system named is STAT1 mRNA. In words: STAT1 mRNA level. The following applies: FIG. 5M. As to the method: FIG. 5C is a line graph showing that STAT1 modulated cancer drug tolerance, and knockdown of STAT1 by siRNA blocked IFNγ-induced change of drug-tolerant subpopulation size. […] FIG. 5E is a bar graph showing that cancer drug treatment (EGFR drugs and other cytotoxic stressors) enhanced STAT1 expression across multiple cell lines. […] Tolerance model for FIG. 5G: PC9 treated with 2.5 μM erlotinib. FIG. 5H presents exemplary data showing differential gene expression in erlotinib-tolerant PC9 cells comparing to parental cells. The top panel of FIG. 5H is a volcano plot in which IRDS genes are shown in black. The bottom panel of FIG. 5H is a line graph showing the accumulative distribution of adjusted p-values of IRDS genes (gray) versus all genes excluding IRDS genes (black). FIG. 5I is a line graph showing the knockdown of STAT1 by siRNA. FIG. 5J is a line graph showing the homozygous knockout of STAT1 by CRISPR. Tolerance model for FIGS. 5I and 5J: PC9 treated with 2.5 μM erlotinib. […] PC9 cells were pretreated with MS023 for one day, followed by co-treatment of erlotinib, and perturbations of protein synthesis or degradation for 16 hours. Cycloheximide (CHX): protein synthesis inhibitor. Bortezomib (Bort): proteasome inhibitor. Ammonium chloride (NH4Cl)): lysosomal function inhibitor. […] Relative intensities were measured from by mass spectrometry experiments. […]

The next assay deals with PABP2. The experiment in a line: PABP2 arginine methylation by mass spectrometry. The following applies: mass spectrometry (FIGS. 2G, 5P, 5Q). As to the method: as §2, §3
The next assay relates to lung cancer cell lines. In words: Drug tolerance in lung cancer cell models. On the procedure: FIGS. 3A-3D present exemplary data showing that Type I PRMT inhibition enhanced cancer drug efficacy. […] FIGS. 3B-3D present data showing the correlation between endogenous STAT1 expression levels and the efficacy of type I PRMT inhibition. […] Gray dots indicate cell lines that were tested for the efficacies of type I PRMT inhibition (by MS023).
(§4) Can type I PRMT inhibition provide a general strategy for reducing drug tolerance and enhance efficacies of SOC drugs? STAT1 signaling can be activated by various sources in tumors, including interferon (IFN)-producing immune cells in the tumor microenvironment, endogenous nucleic acids, and cancer therapeutics (FIG. 2H)^31. […] We also observed efficacy of MS023 with gemcitabine in various pancreatic cancer cell lines (FIG. 6A).

Assay [4] deals with pancreatic cancer cell lines. In words: Drug tolerance in gemcitabine-treated pancreatic cancer cell lines. The following applies: FIG. 6A.
Description: FIGS. 6A-6E present exemplary data showing that Type I PRMT inhibition enhances cancer drug efficacy.
as §4

Assay [5] relates to PD-L1. In words: PD-L1 expression in MGH119. The following applies: lung cancer cell MGH119 (FIG. 12A).
Assay [6] deals with PD-L1. In words: PD-L1 expression in MIAPACA2. The following applies: pancreatic cancer cell MIAPACA2 (FIG. 12B).
Assay [7] concerns solid tumors with wild type splicing factors (e.g. SRSF2, SF3B1, U2AF1). The experiment in a line: Proliferation of solid tumors with wild type splicing factors. The following applies: FIG. 9.
For assay [8], the system named is AKT, ERK and STAT3 pathway. In words: EGFR bypass signaling (AKT, ERK and STAT3 pathway). The following applies: FIG. 5A.

Turning to `CC(C)Oc1ccc(-c2c[nH]cc2CN(C)CCN)cc1` [MS023], the “effect on reducing drug tolerance, dependence on IFNγ” value in the assay on PC9 [1] (PC9 treated with 2.5 μM erlotinib for six days, with or without IFNγ (FIGS. 1E, 4D-4F)) is “only observed in the presence of IFNγ stimulation”. Moreover, in the assay with PC9 [1] (across a wide range of IFNγ concentrations (FIG. 1C)), the “drug tolerance in the PC9/erlotinib model system” value is “reduced drug tolerance”. Moreover, the “expansion of drug-tolerant cells (persisters)” value in the assay with PC9 [2] is on record as “durably reduced the expansion of drug-tolerant cells”. In addition, in assay [3] (CRISPR STAT1 knockout (FIGS. 2D, 5J)), the “efficacy on drug tolerance in STAT1 homozygous knockout cells” value was “no efficacy”. Also, the “efficacy on drug tolerance after STAT1 knockdown” value in [3] (STAT1 siRNA (FIG. 5I)) was “dramatically compromised”. Further, the “mechanism of the reduction of STAT1 expression” value in the assay with STAT1 (PC9 pretreated one day, then erlotinib plus cycloheximide, bortezomib or NH4Cl for 16 hours (FIG. 5N)) was “alteration in protein synthesis”. The “total STAT1 protein level” value in the assay on STAT1 (independent of IFNγ or erlotinib, multiple cancer cell lines (FIGS. 2E, 5K, 5L)) is listed as “downregulated total STAT1 protein level”. Also, in the assay on STAT1 mRNA, the “STAT1 mRNA” value was “did not reduce STAT1 mRNA”. Besides, in the assay with PABP2, the “dimethylation of PABP2 arginine residues” value is listed as “reduced the detected dimethylation of PABP2”. The “drug tolerance in osimertinib-treated lung cancers” value with lung cancer cell lines (EGFR mutant cell lines with T790M resistance mutation, IFNγ stimulation (FIG. 3A middle)) is reported as “reduced drug tolerance”. Moreover, the “drug tolerance in carboplatin-treated lung cancers” value in the assay on lung cancer cell lines (EGFR wild type cell lines, IFNγ stimulation (FIG. 3A bottom)) is “reduced drug tolerance”. Besides, the “IC50 on reducing drug tolerance” value with lung cancer cell lines (lung (erlotinib, osimertinib, carboplatin) and pancreatic (gemcitabine) cancer cell models, IFNγ stimulation) is given as “sub- to low-micromolar range”. Also, the “drug tolerance in erlotinib-treated lung cancers” value in the assay on lung cancer cell lines (multiple EGFR mutant cell lines, IFNγ stimulation (FIG. 3A top)) is given as “reduced drug tolerance”. In addition, in assay [4], the “drug tolerance in gemcitabine-treated pancreatic cancers” value is given as “reduced drug tolerance”. The “expression of immune checkpoint protein PD-L1” value with PD-L1 [5] and in the assay on PD-L1 [6] was “reduced the expression” throughout. Moreover, the proliferation result in assay [7] is “reduced the proliferation”.
In the case of `C#Cc1cccc(Nc2ncnc3cc(OCCOC)c(OCCOC)cc23)c1` [erlotinib], in the assay on STAT1 (combined with IFNγ, PC9 cells (FIG. 5D)), the “total STAT1 as opposed to P-STAT1” value is listed as “synergizes with IFNγ to increase total STAT1”.

B1: IFNγ: dimerized soluble cytokine, the only member of the type II class of interferons (protein, UniProt P01579 24-161, looked up)
Interferon gamma: QDPYVKEAENLKKYFNAGHSDVADNGTLFLGILKNWKEESDRKIMQSQIVSFYFKLFKNFKDDQSIQKSVETIKEDMNVKFFNSNKKKRDDFEKLTNYSVTDLNVQRKAIHELIQVMAELSPAAKTGKRKRSQMLFRG
Regarding B1, in the assay on PC9 [1] (PC9/erlotinib and other models of tolerance (FIGS. 1B, 4A, 4B)), the “drug tolerance at relatively low doses” value was “increase tolerance”. The “drug tolerance at relatively high doses” value with PC9 [1] (PC9/erlotinib, six-day treatment (FIG. 1B)) is given as “decreases drug tolerance”. Besides, the “STAT1 signaling (phosphorylation of STAT1, IRF1 transcription, STAT1 upregulation)” value in the assay with STAT1 (PC9-erlotinib model system (FIG. 5B)) is “activates STAT1 signaling”. Moreover, in [8], the “reactivation of major EGFR bypass signaling” value is reported as “did not observe the reactivation”.
